Assay results: US8846653B2, “Delta-tocotrienol treatment and prevention of pancreatic cancer” (University of South Florida, priority 2006, dated 2014)

Columns and labels:
Assay type in all cases: cell-based, human
MiaPaCa-2 cells [1] = test: MTT assay of MiaPaCa2 cultures, single 50 μM dose; parameters: rel amt (relative value set to the control): unit not given here; conditions: MiaPaCa2, 50 μM; for MTT assay result, av-blank: average minus blank; for MTT assay result, av: average of 7 runs
Outline: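 Viability measured by MTT 48 or 120 hours post-treatment, with a vehicle-only (ethanol-extracted olive oil) culture as control. MiaPaCa-2 cultures received one 50 μM exposure to a tocotrienol, tocopherol, tocopherol succinate, geranylgeraniol or succinic acid.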

BXPC3 cells = test: MTT assay of BXPC3 cultures, single 50 μM dose; parameters: MTT assay result, run 1 / MTT assay result, run 2 / MTT assay result, run 3 / MTT assay result, run 4 / MTT assay result, run 5 / MTT assay result, run 6 / MTT assay result, run 7 / MTT assay result, av (average) / MTT assay result, av-blank / MTT assay result, av: unit not given here; conditions: BXPC3, 50 μM; for MTT assay result, av-blank: average minus blank
Outline: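 Viability measured by MTT assay 48 or 120 hours after one 50 μM treatment with tocol-family compounds, geranylgeraniol, succinic acid or vehicle, with untreated cultures in parallel. BXPC3 cells grown in FBS-supplemented medium, 37° C, humidified 5% CO2.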

MiaPaCa-2 cells [2] = test: MTS assay of MiaPaCa2 cultures, single 50 μM dose; conditions: MiaPaCa2, 50 μM
Outline: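 This MTS viability assay used MiaPaCa2 cultures treated once with 50 μM compound or vehicle, with an untreated culture grown in parallel for comparison. Cells were maintained in DMEM supplemented with 10% FBS, 1% penicillin-streptomycin and 1% L-glutamine at 37° C. under 5% CO2 and humidity.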

Cc1c(O)cc2c(c1C)O[C@](C)(CCC[C@H](C)CCC[C@H](C)CCCC(C)C)CC2 [T gamma]
rel amt (relative value set to the control) (MiaPaCa-2 cells [1]; 48 hours): 94
MTT assay result, av-blank (MiaPaCa-2 cells [1]; 48 hours): 0.292
MTT assay result, av (MiaPaCa-2 cells [1]; 48 hours): 0.338
MTT assay result, run 1 (MiaPaCa-2 cells [1]; 48 hours): 0.35
MTT assay result, run 2 (MiaPaCa-2 cells [1]; 48 hours): 0.323
MTT assay result, run 3 (MiaPaCa-2 cells [1]; 48 hours): 0.312
MTT assay result, run 4 (MiaPaCa-2 cells [1]; 48 hours): 0.36
MTT assay result, run 5 (MiaPaCa-2 cells [1]; 48 hours): 0.348
MTT assay result, run 6 (MiaPaCa-2 cells [1]; 48 hours): 0.328
MTT assay result, run 7 (MiaPaCa-2 cells [1]; 48 hours): 0.348
rel amt (relative value set to the control) (MiaPaCa-2 cells [1]; 120 hours (5 days)): 87
MTT assay result, av-blank (MiaPaCa-2 cells [1]; 120 hours (5 days)): 1.566
MTT assay result, av (MiaPaCa-2 cells [1]; 120 hours (5 days)): 1.618
MTT assay result, run 1 (MiaPaCa-2 cells [1]; 120 hours (5 days)): 1.52
MTT assay result, run 2 (MiaPaCa-2 cells [1]; 120 hours (5 days)): 1.516
MTT assay result, run 3 (MiaPaCa-2 cells [1]; 120 hours (5 days)): 1.547
MTT assay result, run 4 (MiaPaCa-2 cells [1]; 120 hours (5 days)): 1.625
MTT assay result, run 5 (MiaPaCa-2 cells [1]; 120 hours (5 days)): 1.917
MTT assay result, run 6 (MiaPaCa-2 cells [1]; 120 hours (5 days)): 1.568
MTT assay result, run 7 (MiaPaCa-2 cells [1]; 120 hours (5 days)): 1.635
rel amt (relative value set to the control) (BXPC3 cells; 48 hours): 115
MTT assay result, av-blank (BXPC3 cells; 48 hours): 0.262
MTT assay result, av (average) (BXPC3 cells; 48 hours, average of 7 runs): 0.311
MTT assay result, run 1 (BXPC3 cells; 48 hours): 0.32
MTT assay result, run 2 (BXPC3 cells; 48 hours): 0.356
MTT assay result, run 3 (BXPC3 cells; 48 hours): 0.335
MTT assay result, run 4 (BXPC3 cells; 48 hours): 0.304
MTT assay result, run 5 (BXPC3 cells; 48 hours): 0.277
MTT assay result, run 6 (BXPC3 cells; 48 hours): 0.28
MTT assay result, run 7 (BXPC3 cells; 48 hours): 0.306
rel amt (relative value set to the control) (BXPC3 cells; 120 hours (5 days)): 103
MTT assay result, av-blank (BXPC3 cells; 120 hours (5 days)): 0.595
MTT assay result, av (BXPC3 cells; 120 hours (5 days), average of 7 runs): 0.650
MTT assay result, run 1 (BXPC3 cells; 120 hours (5 days)): 0.628
MTT assay result, run 2 (BXPC3 cells; 120 hours (5 days)): 0.66
MTT assay result, run 3 (BXPC3 cells; 120 hours (5 days)): 0.653
MTT assay result, run 4 (BXPC3 cells; 120 hours (5 days)): 0.649
MTT assay result, run 5 (BXPC3 cells; 120 hours (5 days)): 0.682
MTT assay result, run 6 (BXPC3 cells; 120 hours (5 days)): 0.615
MTT assay result, run 7 (BXPC3 cells; 120 hours (5 days)): 0.661
rel amt (relative value set to the control) (MiaPaCa-2 cells [2]; 24 hours): 121
MTS assay result, run 1 (MiaPaCa-2 cells [2]; 24 hours): 0.273
MTS assay result, run 2 (MiaPaCa-2 cells [2]; 24 hours): 0.261
MTS assay result, run 3 (MiaPaCa-2 cells [2]; 24 hours): 0.268
MTS assay result, run 4 (MiaPaCa-2 cells [2]; 24 hours): 0.219
MTS assay result, run 5 (MiaPaCa-2 cells [2]; 24 hours): 0.264
MTS assay result, run 6 (MiaPaCa-2 cells [2]; 24 hours): 0.31
MTS assay result, run 7 (MiaPaCa-2 cells [2]; 24 hours): 0.295
MTS assay result, run 8 (MiaPaCa-2 cells [2]; 24 hours): 0.263
MTS assay result, run 9 (MiaPaCa-2 cells [2]; 24 hours): 0.269
rel amt (relative value set to the control) (MiaPaCa-2 cells [2]; 48 hours): 81
MTS assay result, run 1 (MiaPaCa-2 cells [2]; 48 hours): 0.329
MTS assay result, run 2 (MiaPaCa-2 cells [2]; 48 hours): 0.265
MTS assay result, run 3 (MiaPaCa-2 cells [2]; 48 hours): 0.304
MTS assay result, run 4 (MiaPaCa-2 cells [2]; 48 hours): 0.25
MTS assay result, run 5 (MiaPaCa-2 cells [2]; 48 hours): 0.289
MTS assay result, run 6 (MiaPaCa-2 cells [2]; 48 hours): 0.341
MTS assay result, run 7 (MiaPaCa-2 cells [2]; 48 hours): 0.301
MTS assay result, run 8 (MiaPaCa-2 cells [2]; 48 hours): 0.279
MTS assay result, run 9 (MiaPaCa-2 cells [2]; 48 hours): 0.295
rel amt (relative value set to the control) (MiaPaCa-2 cells [2]; 72 hours): 108
MTS assay result, run 1 (MiaPaCa-2 cells [2]; 72 hours): 0.5
MTS assay result, run 2 (MiaPaCa-2 cells [2]; 72 hours): 0.497
MTS assay result, run 3 (MiaPaCa-2 cells [2]; 72 hours): 0.46
MTS assay result, run 4 (MiaPaCa-2 cells [2]; 72 hours): 0.505
MTS assay result, run 5 (MiaPaCa-2 cells [2]; 72 hours): 0.515
MTS assay result, run 6 (MiaPaCa-2 cells [2]; 72 hours): 0.469
MTS assay result, run 7 (MiaPaCa-2 cells [2]; 72 hours): 0.429
MTS assay result, run 8 (MiaPaCa-2 cells [2]; 72 hours): 0.451
MTS assay result, run 9 (MiaPaCa-2 cells [2]; 72 hours): 0.478
